Activity calls are given as the source filed them. No cut-off for these calls is given here.
Key:
[1] = system: Staphylococcus warneri; experiment: Photodynamic inactivation of Staphylococcus warneri assessed as reduction in DNA level at 0.5 uM preincubated for 10 mins followed by visible light irradiation for 5 to 30 mins by agarose gel electrophoresis; format: functional, organism-based
[2] = system: Escherichia coli; experiment: Photodynamic inactivation of Escherichia coli ATCC 25922 assessed as reduction in nucleic acid level at 5 uM preincubated for 10 mins followed by visible light irradiation for 60 mins by agarose gel electrophoresis; format: functional, organism-based
[3] = system: Escherichia coli; experiment: Photodynamic inactivation of Escherichia coli ATCC 25922 assessed as reduction in 16S rRNA level at 5 uM preincubated for 10 mins followed by visible light irradiation for 30 mins by agarose gel electrophoresis; format: functional, organism-based
[4] = system: Escherichia coli; experiment: Photodynamic inactivation of Escherichia coli ATCC 25922 assessed as reduction in 23S rRNA level at 5 uM preincubated for 10 mins followed by visible light irradiation for 30 mins by agarose gel electrophoresis; format: functional, organism-based
[5] = system: Escherichia coli; experiment: Photodynamic inactivation of Escherichia coli ATCC 25922 assessed as reduction in rRNA level at 5 uM preincubated for 10 mins followed by visible light irradiation for 15 mins by agarose gel electrophoresis; format: functional, organism-based
[6] = system: Escherichia coli; experiment: Photodynamic inactivation of Escherichia coli ATCC 25922 assessed as reduction in genomic DNA level at 5 uM preincubated for 10 mins followed by visible light irradiation for 15 mins by agarose gel electrophoresis; format: functional, organism-based
[7] = system: Escherichia coli; experiment: Photodynamic inactivation of Escherichia coli ATCC 25922 assessed as reduction in intracellular double stranded DNA concentration at 5 uM preincubated for 10 mins followed by visible light irradiation by fluorimetric analysis; format: functional, organism-based; settings: TDE = time-dependent effect
[8] = system: Staphylococcus warneri; experiment: Photodynamic inactivation of Staphylococcus warneri assessed as reduction in DNA level at 0.5 uM preincubated for 10 mins followed by visible light irradiation for 40 mins by agarose gel electrophoresis; format: functional, organism-based
[9] = system: Staphylococcus warneri; experiment: Photodynamic inactivation of Staphylococcus warneri assessed as reduction in cell survival at 0.5 uM preincubated for 10 mins followed by visible light irradiation at 5 J cm'-2 light dose; format: functional
[10] = system: Staphylococcus warneri; experiment: Photodynamic inactivation of Staphylococcus warneri assessed as reduction in intracellular double stranded DNA concentration at 0.5 uM preincubated for 10 mins followed by visible light irradiation by fluorimetric analysis; format: functional, organism-based; settings: TDE = time-dependent effect
[11] = system: Staphylococcus warneri; experiment: Photodynamic inactivation of Staphylococcus warneri assessed as reduction in cell survival at 0.5 uM preincubated for 10 mins followed by visible light irradiation for 40 mins; format: functional
[12] = system: Staphylococcus warneri; experiment: Photodynamic inactivation of Staphylococcus warneri assessed as reduction in cell survival at 0.5 uM preincubated for 10 mins followed by visible light irradiation for 30 mins; format: functional
[13] = system: Escherichia coli; experiment: Photodynamic inactivation of Escherichia coli ATCC 25922 assessed as reduction in cell survival at 5 uM preincubated for 10 mins followed by visible light irradiation at 8 J cm'-2 light dose; format: functional
[14] = system: Staphylococcus warneri; experiment: Photodynamic inactivation of Staphylococcus warneri assessed as reduction in cell survival at 0.5 uM preincubated for 10 mins followed by visible light irradiation for 20 mins; format: functional
[15] = system: Staphylococcus warneri; experiment: Photodynamic inactivation of Staphylococcus warneri assessed as reduction in cell survival at 0.5 uM preincubated for 10 mins followed by visible light irradiation for 15 mins; format: functional
[16] = system: Staphylococcus warneri; experiment: Photodynamic inactivation of Staphylococcus warneri assessed as reduction in cell survival at 0.5 uM preincubated for 10 mins followed by visible light irradiation for 10 mins; format: functional
[17] = system: Staphylococcus warneri; experiment: Photodynamic inactivation of Staphylococcus warneri assessed as reduction in cell survival at 0.5 uM preincubated for 10 mins followed by visible light irradiation for 5 mins; format: functional
[18] = system: Staphylococcus warneri; experiment: Photodynamic inactivation of Staphylococcus warneri assessed as reduction in intracellular double stranded DNA concentration at 0.5 uM preincubated for 10 mins followed by visible light irradiation for 40 mins by fluorimetric analysis relative to control; format: functional; parameters: scale not given: the % may be the effect or the level left
[19] = system: Staphylococcus warneri; experiment: Photodynamic inactivation of Staphylococcus warneri assessed as reduction in intracellular double stranded DNA concentration at 0.5 uM preincubated for 10 mins followed by visible light irradiation for 30 mins by fluorimetric analysis relative to control; format: functional; parameters: scale not given: the % may be the effect or the level left
[20] = system: Staphylococcus warneri; experiment: Photodynamic inactivation of Staphylococcus warneri assessed as reduction in intracellular double stranded DNA concentration at 0.5 uM preincubated for 10 mins followed by visible light irradiation for 20 mins by fluorimetric analysis relative to control; format: functional; parameters: scale not given: the % may be the effect or the level left
[21] = system: Staphylococcus warneri; experiment: Photodynamic inactivation of Staphylococcus warneri assessed as reduction in intracellular double stranded DNA concentration at 0.5 uM preincubated for 10 mins followed by visible light irradiation for 15 mins by fluorimetric analysis relative to control; format: functional; parameters: scale not given: the % may be the effect or the level left
[22] = system: Staphylococcus warneri; experiment: Photodynamic inactivation of Staphylococcus warneri assessed as reduction in intracellular double stranded DNA concentration at 0.5 uM preincubated for 10 mins followed by visible light irradiation for 10 mins by fluorimetric analysis relative to control; format: functional; parameters: scale not given: the % may be the effect or the level left
[23] = system: Staphylococcus warneri; experiment: Photodynamic inactivation of Staphylococcus warneri assessed as reduction in intracellular double stranded DNA concentration at 0.5 uM preincubated for 10 mins followed by visible light irradiation for 5 mins by fluorimetric analysis relative to control; format: functional; parameters: scale not given: the % may be the effect or the level left
[24] = system: Escherichia coli; experiment: Photodynamic inactivation of Escherichia coli ATCC 25922 assessed as reduction in cell survival at 5 uM preincubated for 10 mins followed by visible light irradiation for 270 mins; format: functional
[25] = system: Escherichia coli; experiment: Photodynamic inactivation of Escherichia coli ATCC 25922 assessed as reduction in intracellular double stranded DNA concentration at 5 uM preincubated for 10 mins followed by visible light irradiation for 270 mins by fluorimetric analysis relative to control; format: functional; parameters: scale not given: the % may be the effect or the level left
[26] = system: Escherichia coli; experiment: Photodynamic inactivation of Escherichia coli ATCC 25922 assessed as reduction in intracellular double stranded DNA concentration at 5 uM preincubated for 10 mins followed by visible light irradiation for 180 mins by fluorimetric analysis relative to control; format: functional; parameters: scale not given: the % may be the effect or the level left
[27] = system: Escherichia coli; experiment: Photodynamic inactivation of Escherichia coli ATCC 25922 assessed as reduction in intracellular double stranded DNA concentration at 5 uM preincubated for 10 mins followed by visible light irradiation for 90 mins by fluorimetric analysis relative to control; format: functional; parameters: scale not given: the % may be the effect or the level left
[28] = system: Escherichia coli; experiment: Photodynamic inactivation of Escherichia coli ATCC 25922 assessed as reduction in intracellular double stranded DNA concentration at 5 uM preincubated for 10 mins followed by visible light irradiation for 60 mins by fluorimetric analysis relative to control; format: functional; parameters: scale not given: the % may be the effect or the level left
[29] = system: Escherichia coli; experiment: Photodynamic inactivation of Escherichia coli ATCC 25922 assessed as reduction in intracellular double stranded DNA concentration at 5 uM preincubated for 10 mins followed by visible light irradiation for 30 mins by fluorimetric analysis relative to control; format: functional; parameters: scale not given: the % may be the effect or the level left
[30] = system: Escherichia coli; experiment: Photodynamic inactivation of Escherichia coli ATCC 25922 assessed as reduction in intracellular double stranded DNA concentration at 5 uM preincubated for 10 mins followed by visible light irradiation for 15 mins by fluorimetric analysis relative to control; format: functional; parameters: scale not given: the % may be the effect or the level left
[31] = system: Staphylococcus warneri; experiment: Photodynamic inactivation of Staphylococcus warneri assessed as reduction in nucleic acid level at 0.5 uM preincubated for 10 mins followed by visible light irradiation for 20 to 40 mins by agarose gel electrophoresis; format: functional, organism-based
[32] = system: Staphylococcus warneri; experiment: Photodynamic inactivation of Staphylococcus warneri assessed as reduction in genomic DNA level at 0.5 uM preincubated for 10 mins followed by visible light irradiation for 5 to 15 mins by agarose gel electrophoresis; format: functional, organism-based
[33] = system: Escherichia coli; experiment: Photodynamic inactivation of Escherichia coli ATCC 25922 assessed as reduction in degraded DNA and mRNA level at 5 uM preincubated for 10 mins followed by visible light irradiation for 30 mins by agarose gel electrophoresis; format: functional, organism-based
[34] = system: Staphylococcus warneri; experiment: Drug uptake in Staphylococcus warneri at 0.5 uM after 10 mins by spectrofluorimetric analysis; format: ADME, organism-based; settings: in vivo
[35] = system: Staphylococcus warneri; experiment: Drug uptake in Staphylococcus warneri at 0.5 uM incubated for 10 mins followed by compound washout by spectrofluorimetric analysis relative to control; format: ADME, organism-based; settings: in vivo
[36] = system: Escherichia coli; experiment: Drug uptake in Escherichia coli ATCC 25922 at 5 uM incubated for 10 mins followed by compound washout by spectrofluorimetric analysis relative to control; format: ADME, organism-based; settings: in vivo
[37] = system: Escherichia coli; experiment: Drug uptake in Escherichia coli ATCC 25922 at 5 uM after 10 mins by spectrofluorimetric analysis; format: ADME, organism-based; settings: in vivo
[38] = system: Escherichia coli; experiment: Photodynamic inactivation of Escherichia coli ATCC 25922 assessed as reduction in cell survival at 5 uM preincubated for 10 mins followed by visible light irradiation for 15 mins; format: functional
[39] = system: Escherichia coli; experiment: Photodynamic inactivation of Escherichia coli ATCC 25922 assessed as reduction in cell survival at 5 uM preincubated for 10 mins followed by visible light irradiation for 30 mins; format: functional
[40] = system: Escherichia coli; experiment: Photodynamic inactivation of Escherichia coli ATCC 25922 assessed as reduction in cell survival at 5 uM preincubated for 10 mins followed by visible light irradiation for 60 mins; format: functional
[41] = system: Escherichia coli; experiment: Photodynamic inactivation of Escherichia coli ATCC 25922 assessed as reduction in cell survival at 5 uM preincubated for 10 mins followed by visible light irradiation for 90 mins; format: functional
[42] = system: Escherichia coli; experiment: Photodynamic inactivation of Escherichia coli ATCC 25922 assessed as reduction in cell survival at 5 uM preincubated for 10 mins followed by visible light irradiation for 180 mins; format: functional

| Structure (SMILES) | Activity [2] | Activity [5] | Activity [6] | Activity [7] | Activity [9] [%] | log10CFU/ml [11] | log10CFU/ml [12] | Activity [13] [%] | log10CFU/ml [14] | log10CFU/ml [15] | log10CFU/ml [16] | log10CFU/ml [17] | Activity [18] [%] | Activity [19] [%] | Activity [20] [%] | Activity [21] [%] | Activity [22] [%] | Activity [23] [%] | log10CFU/ml [24] | Activity [25] [%] | also measured |
| --- | --- | --- | --- | --- | --- | --- | --- | --- | --- | --- | --- | --- | --- | --- | --- | --- | --- | --- | --- | --- | --- |
| C[n+]1ccc(-c2c3nc(c(-c4cc[n+](C)cc4)c4ccc([nH]4)c(-c4cc[n+](C)cc4)c4ccc([nH]4)c(-c4cc[n+](C)cc4)c4nc2C=C4)C=C3)cc1 | Active | inactive | inactive | tde | – | – | – | – | – | – | – | – | – | – | – | – | – | – | – | – | Activity [1]: Active; Activity [3]: Active; Activity [4]: Active; Activity [8]: inactive |
| C[n+]1ccc(-c2c3nc(c(-c4cc[n+](C)cc4)c4ccc([nH]4)c(-c4c(F)c(F)c(F)c(F)c4F)c4nc(c(-c5cc[n+](C)cc5)c5ccc2[nH]5)C=C4)C=C3)cc1.[I-].[I-].[I-] | Active | Active | Active | tde | 99.9 | 7.5 | 7.2 | 99.9 | 6.9 | 5.6 | 5.3 | 4.8 | 92.2 | 91.9 | 82.8 | 78 | 69.9 | 66.2 | 7.7 | 99.6 | Activity [10]: tde; Activity [26]: 99.1%; Activity [27]: 98.3%; Activity [28]: 98.4%; Activity [29]: 55.1%; Activity [30]: 23.1%; Activity [31]: Active; Activity [32]: Active; Activity [33]: Active; Drug uptake [34]: Active; Drug uptake [35]: 74%; Drug uptake [36]: 47%; Drug uptake [37]: Active; log10CFU/ml [38]: 3.1; log10CFU/ml [39]: 5.2; log10CFU/ml [40]: 5.4; log10CFU/ml [41]: 5.8; log10CFU/ml [42]: 7.2 |
| C[n+]1ccc(-c2c3nc(c(-c4cc[n+](C)cc4)c4ccc([nH]4)c(-c4cc[n+](C)cc4)c4nc(c(-c5cc[n+](C)cc5)c5ccc2[nH]5)C=C4)C=C3)cc1.[I-].[I-].[I-].[I-] | – | – | – | – | 99.9 | 5.6 | 4.7 | 99.9 | 3.3 | 2.8 | 1.8 | 0.4 | 58.2 | 45.3 | 38.3 | 38.1 | 37.9 | 19.6 | 6.2 | 99.8 | Activity [26]: 99.8%; Activity [27]: 99.8%; Activity [28]: 81.2%; Activity [29]: 42.8%; Activity [30]: 14.3%; Drug uptake [34]: Active; Drug uptake [35]: 47%; Drug uptake [36]: 35%; Drug uptake [37]: Active; log10CFU/ml [38]: 0.2; log10CFU/ml [39]: 2.9; log10CFU/ml [40]: 4.4; log10CFU/ml [41]: 5.7; log10CFU/ml [42]: 6.1 |

Source: ChEMBL document CHEMBL2401671, “Nucleic acid changes during photodynamic inactivation of bacteria by cationic porphyrins” (Bioorg Med Chem, 2013)
